Test results reported in patent US4868195A, “Novel enolamides, pharmaceutical compositions and methods of use thereof for activity as modulators of the arachidonic acid cascade” (Warner-Lambert Company, priority 1988, dated 1989).
Where “and” joins values, the source holds several entries; their conditions need not be identical. Identical values can stand only once.

Target: T1, leukotriene receptor (guinea pig lung membranes) (Cavia porcellus, UniProt Q2NNR5)
T1 construct: 20 mg original tissue wet weight of guinea pig lung; tissue Kuiper Rabbit Farm, Gary, IN (animals); host or cells: guinea pig lung, crude membranes
T1 sequence (Q2NNR5 1-340): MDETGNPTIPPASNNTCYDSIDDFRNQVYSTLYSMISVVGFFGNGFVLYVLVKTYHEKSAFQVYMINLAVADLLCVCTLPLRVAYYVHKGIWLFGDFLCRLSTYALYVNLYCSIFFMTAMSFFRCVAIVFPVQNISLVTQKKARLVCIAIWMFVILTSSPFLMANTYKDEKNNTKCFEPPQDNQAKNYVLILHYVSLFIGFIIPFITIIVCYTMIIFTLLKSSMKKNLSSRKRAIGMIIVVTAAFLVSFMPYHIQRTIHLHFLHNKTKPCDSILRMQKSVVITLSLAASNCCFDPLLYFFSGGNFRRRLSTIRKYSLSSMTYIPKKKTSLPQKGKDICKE
Assay: Binding of ^3 H-Leukotriene D4 to Guinea Pig Lung Membranes (RBL)
Settings: 0.2 nM ^3 H-LTD4, 60 min, 25° C.; read-out: Concentration (M) for 50.0 % Inhibition, IC (RBL)
Procedure: Additionally, the activity, of the compounds having the Formula I of the present invention is determined by the well known leukotriene receptor binding assay that is described by R. F. Bruns, W. J. Thomsen and T. A. Pugsley in Life Sciences, 33, 645 (1983) or the Herxheimer in vivo antiallergy test described in H. Herxheimer, J. Physiol. (London), Vol. 177, p. 251 (1952).
Binding of ^3 H-Leukotriene D4 to Guinea Pig Lung Membranes (RBL)
[14,15-^3 H]leukotriene D4 (^3 H-LTD4) (25 Ci/mmol and 40 Ci/mmol) is purchased from New England Nuclear. Unlabeled LTC4 is a gift of Ono Pharmaceuticals (Japan). LTC4, LTD4, and LTE4 are purchased as methyl esters from Paesel GmbH (Frankfurt, W. Germany). Concentrations of the Paesel leukotrienes are calculated from their absorbance at 280 nm. Leukotriene esters are saponified overnight under N2 in 3.3% potassium carbonate at room temperature. Tritiated leukotrienes are stored as received from New England Nuclear at -20° C. Ono LTC4 (5 μg/ml) is stored at -60° C. in phosphate buffer pH 6.8. Saponified Paesel leukotrienes are stored at -60° C. in 3.3% potassium carbonate (pH 9.0-9.5). Aliquots of leukotrienes are taken from stock solutions immediately after thawing, after which the stock solutions are immediately refrozen. 2-Amino-2-(hydroxymethyl)-1,3-propanediol (Tris) is Sigma pH 7.7 pre-set crystals, and dimethylsulfoxide is Aldrich Gold Label.
Preparation of crude lung membranes
Two pairs of lungs (1.3 g) from freshly sacrificed 300 g male guinea pigs (older animals gave substantially lower binding) from Kuiper Rabbit Farm, Gary, IN are disrupted with a Polytron PT 10 (setting 4) for 30 seconds in 20 ml ice-cold 50 mM Tris adjusted with HCl to pH 7.7 at 25° C. (Tris buffer), filtered through a single layer of gauze to remove connective tissue, and centrifuged at 50,000 xg for ten min. The pellet is resuspended by homogenization with a Polytron in 20 ml Tris buffer, centrifuged at 50,000 xg for ten min., resuspended, incubated at 37° C. for 30 minutes, and centrifuged again. The final pellet is resuspended in Tris buffer and either used fresh or stored at -70° C.
All incubations are in triplicate for 60 minutes at 25° C. in 12×75 mm polystyrene tubes containing 1 ml Tris buffer with 20 mg original tissue wet weight of guinea pig lung nmembranes, 0.2 nM ^3 H-LTD4 (6,000-11,000 cpm), 10 mM MgCl2, and 1% dimethylsulfoxide Leukotrienes are diluted in Tris buffer. All other test compounds dissolved at 10 mM in dimethylsulfoxide on the same day as the experiment, and diluted in dimethylsulfoxide to 100× the final incubation concentration. Control incubations receive an equal volume (10 μl) of dimethylsulfoxide; the resulting concentration of dimethylsulfoxide had no effect on binding. ^3 H-LTD4 is diluted to 2 nM in Tris buffer. The membrane suspension (20 mg/0.89 ml) contains sufficient MgCl2 to give 10 mM final concentration in the incubation. […] All additions are performed at 0° C. Immediately after the last addition, the incubation is initiated by agitating the rack of tubes on a vortex mixer and warming to 25° C. in a water bath. Tubes are vortexed at least once more during the incubation to ensure that the membranes remained suspended. Incubations are terminated after 60 minutes by filtering under reduced pressure through 25 mm Whatman GF/B filters followed by rapid washing three times with 4 ml of ice-cold Tris buffer. Filters are added to scintillation vials with 8 ml Formula 947 (New England Nuclear), left overnight, shaken, and the radioactivity counted in a scintillation counter (efficiency 40%). Nonspecific binding, defined as binding of ^3 H-LTD4 in the presence of 100 nM LTC4, is 300-500 cpm for all lots of ^3 H-LTD4. Binding to the filters in the absence of tissue is about 100 cpm, and is not affected by unlabeled LTC4. Specific binding, defined as total binding minus nonspecific binding, varied considerably from lot to lot of ^3 H-LTD4. […]

IC50	SMILES
4.21e-06 M	O=C(Nc1ccccc1CCc1ccc(Cl)c(Cl)c1)C1=C(O)c2ccccc2S(=O)(=O)C1 [Example 8, N-[2-[2-(3,4-Dichlorophenyl)ethyl]phenyl]-4-hydroxy-2H-1-benzothiopyran-3-carboxamide, 1,1-dioxide]
1.28e-05 M	O=C(Nc1ccc(CCc2ccccc2)cc1)C1CS(=O)(=O)c2ccccc2C1=O (centres unmarked) [Example 16, 3,4-Dihydro-4-oxo-N-[(4-(2-phenyl)ethyl]-phenyl]-2H-1-benzothiopyran-3-carboxamide, 1,1-dioxide]
7.19e-05 M	COc1ccc(CCc2ccc(NC(=O)C3=C(O)c4ccccc4S(=O)(=O)C3)cc2)cc1OC [Example 18, N-[4-[2-(3,4-Dimethoxyphenyl)ethyl]phenyl]-4-hydroxy-2H-1-benzothiopyran-3-carboxamide, 1,1-dioxide]
0.000106 M and 0.00012 M	COc1ccc(CCc2ccc(NC(=O)C3CS(=O)(=O)c4ccccc4C3=O)cc2)cc1O (centres unmarked) [Example 27, 3,4-Dihydro-N-[4-[2-(3-hydroxy-4-methoxyphenyl)ethyl]phenyl]-4-oxo-2H-1-benzothiopyran-3-carboxamide, 1,1-dioxide]
1.26e-05 M	COc1ccc(CCc2ccc(NC(=O)C3CS(=O)(=O)c4ccccc4C3=O)cc2)cc1 (centres unmarked) [Example 41]
2.15e-05 M and 1.87e-05 M	O=C(Nc1ccc(CCc2ccc(-c3ccccc3)cc2)cc1)C1CS(=O)(=O)c2ccccc2C1=O (centres unmarked) [Example 46, N-[4-[2-([1,1'-biphenyl]-4-yl)ethyl]phenyl]-3,4-dihydro-4-oxo-2H-1-benzothiopyran-3-carboxamide, 1,1-dioxide]
6.48e-06 M and 1.19e-05 M and 2e-05 M and 1.29e-05 M	CCCCOc1ccc(CCc2ccc(NC(=O)C3CS(=O)(=O)c4ccccc4C3=O)cc2)cc1 (centres unmarked) [Example 48]
3.84e-06 M	O=C(Nc1ccc(CCc2ccc3ccccc3c2)cc1)C1=C(O)c2ccccc2S(=O)(=O)C1 [Example 51, 4-Hydroxy-N-[4-[2-(2-naphthalenyl)ethyl]phenyl]-2H-1-benzothiopyran-3-carboxamide, 1,1-dioxide]
3.54e-06 M	Cc1ccc(CCc2ccc(NC(=O)C3CS(=O)(=O)c4ccccc4C3=O)cc2)cc1C (centres unmarked) [Example 53, N-[4-[2-(3,4-Dimethylphenyl)ethyl]phenyl]-3,4-dihydro-4-oxo-2H-1-benzothiopyran-3-carboxamide, 1,1-dioxide]
1.09e-05 M	O=C(Nc1ccc(CCc2ccc(Cl)cc2)cc1)C1CS(=O)(=O)c2ccccc2C1=O (centres unmarked) [Example 54, N-[4-[2-(4-Chlorophenyl)ethyl]phenyl]-3,4-dihydro-4-oxo-2H-1-benzothiopyran-3-carboxamide, 1,1-dioxide]
1.21e-05 M	CCCCCCCCCCc1ccc(NC(=O)C2CS(=O)(=O)c3ccccc3C2=O)cc1 (centres unmarked) [Example 60, N-(4-Decylphenyl)-3,4-dihydro-4-oxo-2H-1-benzoothiopyran-3-carboxamide, 1,1-dioxide]
6.11e-06 M and 9.49e-06 M and 2.82e-06 M	O=C(Nc1ccc(CCc2c(F)c(F)c(F)c(F)c2F)cc1)C1=C(O)c2ccccc2S(=O)(=O)C1 [Example 64, N-[4-[2-(2,3,4,5,6-Pentafluorophenyl)ethyl]phenyl]-4-hydroxy-2H-1-benzothiopyran-3-carboxamide, 1,1-dioxide]
6.56e-06 M and 1.04e-05 M	O=C(Nc1ccc(C=Cc2ccc([N+](=O)[O-])cc2)cc1)C1CS(=O)(=O)c2ccccc2C1=O (centres unmarked) [Example 67, 2H-1-Benzothiopyran-3-carboxamide, 3,4-dihydro-N-[4-[2-(4-nitrophenyl)ethenyl]phenyl]-4-oxo-, 1,1-dixide]
3.84e-06 M	O=C(Nc1ccc(CCc2cccc3ccccc23)cc1)C1=C(O)c2ccccc2S(=O)(=O)C1 [Example 73, 2H-1-Benzothiopyran-3-carboxamide, 4-hydroxy-N-[4-[2-(1-naphthalenyl)ethyl]phenyl], 1,1-dioxide]
5.27e-06 M	O=C(Nc1ccc(C=Cc2ccc(Cl)c(Cl)c2)cc1)C1=C(O)c2ccccc2S(=O)(=O)C1 [Example 74, 2H-1-Benzothiopyran-3-carboxamide, N-[4-[2-(3,4-dichlorophenyl)ethenyl]phenyl]-4-hydroxy-, 1,1-dioxide]
3e-06 M	O=C(Nc1cccc(CCc2ccc(Cl)c(Cl)c2)c1)C1=C(O)c2ccccc2S(=O)(=O)C1 [Example 76, 2H-1-Benzothiopyran-3-carboxamide, N-[3-[2-(3,4-dichlorophenyl)ethyl]phenyl]-4-hydroxy-, 1,1-dioxide]
4.82e-06 M	O=C(Nc1ccc(Cc2ccc(Cl)c(Cl)c2)cc1)C1=C(O)c2ccccc2S(=O)(=O)C1 [Example 78, 2H-1-Benzothiopyran-3-carboxamide, N-[4-[(3,4-dichlorophenyl)methyl]phenyl]-4-hydroxy-, 1,1-dioxide]
4.13e-07 M and 5.3e-07 M	O=C(Nc1ccc(CCCc2ccc(Cl)c(Cl)c2)cc1)C1=C(O)c2ccccc2S(=O)(=O)C1 [Example 79, 2H-1-Benzothiopyran-3-carboxamide, N-[4-[3-(3,4-dichlorphenyl)propyl]phenyl]-4-hydroxy-, 1,1-dioxide]
1.27e-05 M	O=C(Nc1ccccc1CCCc1ccc(Cl)c(Cl)c1)C1=C(O)c2ccccc2S(=O)(=O)C1 [Example 80, 2H-1-Benzothiopyran-3-carboxamide, N-[2-[3-(3,4-dichlorophenyl)propyl]phenyl]-4-hydroxy-, 1,1-dioxide]
1.01e-05 M	O=C(Nc1ccccc1Cc1ccc(Cl)c(Cl)c1)C1=C(O)c2ccccc2S(=O)(=O)C1 [Example 81, 2H-1-Benzothiopyran-3-carboxamide, N-[2-[(3,4-dichlorophenyl)methyl]phenyl]-4-hydroxy, 1,1-dioxide]
6.1e-05 M	COc1cc(CCc2ccc(NC(=O)C(=O)c3sc4ccccc4c3O)cc2)ccc1O [Example 142, Benzo[b]thiophene-2-acetamide, 3-hydroxy-N-[4-[2-(4-hydroxy-3-methoxyphenyl)ethyl]phenyl]-α-oxo-]
1.21e-05 M	COc1ccc(CCc2ccc(NC(=O)c3sc4ccccc4c3O)cc2)cc1OC [Example 143, Benzo[b]thiophene-2-carboxamide, N-[4-[2-(3,4-dimethoxphenyl)ethyl]phenyl]-3-hydroxy]
1.02e-06 M	O=C(Nc1cccc(CCc2ccc(Cl)c(Cl)c2)c1)c1sc2ccccc2c1O [Example 146, Benzo[b]thiophene-2-carboxamide, N-[3-[2-(3,4-dichlorophenyl)ethyl]phenyl]-3-hydroxy]
